pKi: −log10 of the molar value. Some results are limits rather than exact numbers.

In the first experiment the target is T1, HCV NS3/NS4a serine protease (Hepatitis C virus genotype 1b, UniProt P26663).
T1 construct: amino terminus of the NS3 protease domain (amino acids 3-181) with a tetrapeptide linker; made in house; host or cells: E. coli
T1 sequence (P26663 1013-1207, looked up, natural form): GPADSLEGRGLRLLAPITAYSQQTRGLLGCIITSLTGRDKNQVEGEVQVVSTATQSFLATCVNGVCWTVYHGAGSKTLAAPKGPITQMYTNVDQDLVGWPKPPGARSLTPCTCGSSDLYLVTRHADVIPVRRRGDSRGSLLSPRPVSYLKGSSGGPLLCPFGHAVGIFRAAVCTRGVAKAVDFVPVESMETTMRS
Kind of experiment: Spectrophotometric assay for HCV protease inhibitory activity (chromogenic ester substrates). Conditions: Ki Rating, Table 2; single chain NS4A21-32-GSGS-NS3 3-181 protease, 30° C., pH 6.5. It is filed as biochemical, hepatitis C virus (strain 1b). Put shortly: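 Single-chain NS4A(21-32)-GSGS-NS3(3-181) protease (genotype 1b) from E. coli was used at 1.3 nM in 25 mM MOPS pH 6.5 with 300 mM NaCl, 30 °C and 4% DMSO. Chromogenic ester substrate cleavage was followed as PAP release at 370 nm over 60 min. Ki was derived from vo/vi versus [I] plots assuming competitive inhibition.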
In general, pKi refers to the Ki on a negative log10 scale, so that one unit is a factor of ten. In the case of `CC(C)(C)OC(=O)N[C@H](C(=O)N1C[C@H]2[C@@H]([C@H]1C(=O)N[C@@H](CC(F)F)C(=O)NCCC(=O)O)C2(C)C)C(C)(C)C` [Example 169], the pKi was < 6.30. As for `CC(C)[C@H](NC(=O)N[C@H](C(=O)N1C[C@H]2[C@@H]([C@H]1C(=O)NC(CC(F)F)C(=O)NCCc1ccc(C(=O)O)cc1)C2(C)C)C(C)(C)C)C(=O)OC(C)(C)C` (stereo partly shown) [Example 129], the pKi is 6.30 to 7.00. For the molecule `CC(C)(C)OC(=O)CCNC(=O)[C@H](CC(F)F)NC(=O)[C@@H]1[C@@H]2[C@H](CN1C(=O)[C@@H](NC(=O)OC(C)(C)C)C(C)(C)C)C2(C)C` [Example 162], the pKi is < 6.30.

For the molecule `CC(C)[C@H](NC(=O)N[C@H](C(=O)N1C[C@@H]2OC(C)(C)C[C@@H]2[C@H]1C(=O)N[C@@H](CC(F)F)C(=O)NCCc1ccc(C(=O)O)cc1)C1CCCCC1)C(=O)OC(C)(C)C` [Example 150], the pKi was < 6.30.

`COC(=O)c1ccc(CCNC(=O)[C@H](CC(F)F)NC(=O)[C@@H]2[C@@H]3[C@H](CN2C(=O)[C@@H](NC(=O)OC(C)(C)C)C(C)(C)C)C3(C)C)cc1` [Example 148]: the pKi was < 6.30.

The experiment is the same for the next values; noted with them: Ki, Table 1; single chain NS4A21-32-GSGS-NS3 3-181 protease, 30° C., pH 6.5.
As to `COC(=O)c1ccc(CCNC(=O)[C@H](CC(F)F)NC(=O)[C@@H]2[C@@H]3[C@H](CN2C(=O)[C@@H](NC(=O)N[C@H](CN2CCCS2(=O)=O)C(C)(C)C)C(C)(C)C)C3(C)C)c(Cl)c1` [Example 108], the pKi was 7.52.

Still in this experiment, the particulars now being: Ki, Table 3; rating; single chain NS4A21-32-GSGS-NS3 3-181 protease, 30° C., pH 6.5.
On to `CN(C[C@@H](NC(=O)N[C@H](C(=O)N1C[C@H]2[C@@H]([C@H]1C(=O)N[C@@H](CC(F)F)C(=O)NC1Cc3ccccc3C1)C2(C)C)C(C)(C)C)C(C)(C)C)S(C)(=O)=O` [Example 218], for which the negative-log Ki (pKi) was < 6.30.

On to `CN(C[C@@H](NC(=O)N[C@H](C(=O)N1C[C@H]2[C@@H]([C@H]1C(=O)N[C@@H](CC(F)F)C(=O)NCCc1c(Cl)cccc1Cl)C2(C)C)C(C)(C)C)C(C)(C)C)S(C)(=O)=O` [Example 284], for which the pKi is > 7.00.

`CN(C[C@@H](NC(=O)N[C@H](C(=O)N1C[C@H]2[C@@H]([C@H]1C(=O)N[C@@H](CC(F)F)C(=O)NCCc1ccccc1F)C2(C)C)C(C)(C)C)C(C)(C)C)S(C)(=O)=O` [Example 263]: the pKi is > 7.00.

As to `CN(C[C@@H](NC(=O)N[C@H](C(=O)N1C[C@H]2[C@@H]([C@H]1C(=O)N[C@@H](CC(F)F)C(=O)NC1CCCc3ccccc31)C2(C)C)C(C)(C)C)C(C)(C)C)S(C)(=O)=O` (stereo partly shown) [Example 224], the pKi was < 6.30. Still for that read-out and setting: the figure for `COc1cccc(CCNC(=O)[C@H](CC(F)F)NC(=O)[C@@H]2[C@@H]3[C@H](CN2C(=O)[C@@H](NC(=O)N[C@H](CN(C)S(C)(=O)=O)C(C)(C)C)C(C)(C)C)C3(C)C)c1OC` [Example 277] is 6.30 to 7.00; for `CN(C[C@@H](NC(=O)N[C@H](C(=O)N1C[C@H]2[C@@H]([C@H]1C(=O)N[C@@H](CC(F)F)C(=O)NCCc1ccc(Cl)cc1Cl)C2(C)C)C(C)(C)C)C(C)(C)C)S(C)(=O)=O` [Example 283] it is > 7.00. Same read-out and setting: then `COc1cc(CCNC(=O)[C@H](CC(F)F)NC(=O)[C@@H]2[C@@H]3[C@H](CN2C(=O)[C@@H](NC(=O)N[C@H](CN(C)S(C)(=O)=O)C(C)(C)C)C(C)(C)C)C3(C)C)cc(OC)c1` [Example 278], with 6.30 to 7.00. Same read-out and setting: then `CN(C[C@@H](NC(=O)N[C@H](C(=O)N1C[C@H]2[C@@H]([C@H]1C(=O)N[C@@H](CC(F)F)C(=O)NC1CC1)C2(C)C)C(C)(C)C)C(C)(C)C)S(C)(=O)=O` [Example 203], with < 6.30; and `CN(C[C@@H](NC(=O)N[C@H](C(=O)N1C[C@H]2[C@@H]([C@H]1C(=O)N[C@@H](CC(F)F)C(=O)NCC1CCCO1)C2(C)C)C(C)(C)C)C(C)(C)C)S(C)(=O)=O` (stereo partly shown) [Example 210], with < 6.30; and `CN(C[C@@H](NC(=O)N[C@H](C(=O)N1C[C@H]2[C@@H]([C@H]1C(=O)N[C@@H](CC(F)F)C(=O)NCCc1c[nH]cn1)C2(C)C)C(C)(C)C)C(C)(C)C)S(C)(=O)=O` [Example 244], with < 6.30.

(Values after patent US7449447B2, “Peptidomimetic NS3-serine protease inhibitors of hepatitis C virus” (priority 2003, dated 2008).)
